In PubChem BioAssay AID2060505 (Molecular Pharmacology Branch, DTP, NCI, 2025):

Test system: 633275-114-R-J1-PDC complex spheroids, viability
Experiment: Anticancer human tumor 633275-114-R-J1-PDC patient-derived endometrial adenocarcinoma cell line growth inhibition [GQUAD]
Settings: for IC50: curve of first compound; for viability, T/C: stronger effect = lower value; active = viability on the fitted dose curve at most 10% of control; inactive = the rest
In short: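 Multi-cell-type spheroids of tumor cells with HUVEC and mesenchymal stem cells, treated with drug combinations. Concentrations descend in half-log steps from near clinical Cmax, or from 10 microM where Cmax is unknown; viability read-out.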

[1] = second compound 0.0316 µM, first compound 0.0316 µM
[2] = second compound 0.0316 µM, first compound 0.1 µM
[3] = second compound 0.0316 µM, first compound 0.316 µM
[4] = second compound 0.0316 µM, first compound 1 µM
[5] = second compound 0.0316 µM, first compound 3.16 µM
[6] = second compound 0.0316 µM, first compound 10 µM
[7] = second compound 0.1 µM, first compound 0.0316 µM
[8] = second compound 0.1 µM, first compound 0.1 µM
[9] = second compound 0.1 µM, first compound 0.316 µM
[10] = second compound 0.1 µM, first compound 1 µM
[11] = second compound 0.1 µM, first compound 3.16 µM
[12] = second compound 0.1 µM, first compound 10 µM
[13] = second compound 0.316 µM, first compound 0.0316 µM
[14] = second compound 0.316 µM, first compound 0.1 µM
[15] = second compound 0.316 µM, first compound 0.316 µM
[16] = second compound 0.316 µM, first compound 1 µM
[17] = second compound 0.316 µM, first compound 3.16 µM
[18] = second compound 0.316 µM, first compound 10 µM
[19] = second compound 1 µM, first compound 0.0316 µM
[20] = second compound 1 µM, first compound 0.1 µM
[21] = second compound 1 µM, first compound 0.316 µM
[22] = second compound 1 µM, first compound 1 µM
[23] = second compound 1 µM, first compound 3.16 µM
[24] = second compound 1 µM, first compound 10 µM
[25] = second compound 3.16 µM, first compound 0.0316 µM
[26] = second compound 3.16 µM, first compound 0.1 µM
[27] = second compound 3.16 µM, first compound 0.316 µM
[28] = second compound 3.16 µM, first compound 1 µM
[29] = second compound 3.16 µM, first compound 3.16 µM
[30] = second compound 3.16 µM, first compound 10 µM
[31] = second compound 10 µM, first compound 0.0316 µM
[32] = second compound 10 µM, first compound 0.1 µM
[33] = second compound 10 µM, first compound 0.316 µM
[34] = second compound 10 µM, first compound 1 µM
[35] = second compound 10 µM, first compound 3.16 µM
[36] = second compound 10 µM, first compound 10 µM
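Also: spheroids exposed to the agents for seven days.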
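For viability, T/C in this document: percent of DMSO vehicle control viability which is 100%.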

O=C(NO)c1cnc(N2CCN(S(=O)(=O)c3ccc4ccccc4c3)CC2)nc1 + CN(C)c1ccc(Nc2c3ccc(NC(=O)CCN4CCCC4)cc3nc3cc(NC(=O)CCN4CCCC4)ccc23)cc1
158 nM: IC50 (second compound 1 µM)
206 nM: IC50 (second compound 0.0316 µM)
170 nM: IC50 (second compound 0.316 µM)
138 nM: IC50 (second compound 3.16 µM)
150 nM: IC50 (second compound 0.1 µM)
< 31.6 nM: IC50 (second compound 10 µM)
inactive: viability, T/C [1] 75.1% | viability, T/C [2] 64.9% | viability, T/C [3] 40.4% | viability, T/C [4] 22.8% | viability, T/C [5] 11.5% | viability, T/C [7] 68.3% | viability, T/C [8] 58.4% | viability, T/C [9] 35.5% | viability, T/C [10] 19.6% | viability, T/C [13] 80.9% | viability, T/C [14] 62% | viability, T/C [15] 35.7% | viability, T/C [16] 20.1% | viability, T/C [17] 12.1% | viability, T/C [19] 70.1% | viability, T/C [20] 58.3% | viability, T/C [21] 37.9% | viability, T/C [22] 18.3% | viability, T/C [23] 12.2% | viability, T/C [25] 62.6% | viability, T/C [26] 55% | viability, T/C [27] 37.5% | viability, T/C [28] 15.6% | viability, T/C [31] 30.4% | viability, T/C [32] 26.4% | viability, T/C [33] 16.3%
active: viability, T/C [6] 4.89% | viability, T/C [11] 10.5% | viability, T/C [12] 5.36% | viability, T/C [18] 4.98% | viability, T/C [24] 5.49% | viability, T/C [29] 9.85% | viability, T/C [30] 2.65% | viability, T/C [34] 6.49% | viability, T/C [35] 1.21% | viability, T/C [36] 0.19%

CC1COCCN1c1cc(C2(S(C)(=N)=O)CC2)nc(-c2ccnc3[nH]ccc23)n1 (stereo unspecified) + Cc1[nH]c2ccc(F)cc2c1-c1nc2c3cccnc3c3ncccc3c2[nH]1
1290 nM: IC50 (second compound 3.16 µM)
3070 nM: IC50 (second compound 0.1 µM)
3550 nM: IC50 (second compound 0.316 µM)
3240 nM: IC50 (second compound 1 µM)
1380 nM: IC50 (second compound 10 µM)
3460 nM: IC50 (second compound 0.0316 µM)
inactive: viability, T/C [1] 105% | viability, T/C [2] 96.1% | viability, T/C [3] 98.3% | viability, T/C [4] 73.9% | viability, T/C [5] 52.6% | viability, T/C [6] 33.8% | viability, T/C [7] 97.3% | viability, T/C [8] 99.9% | viability, T/C [9] 96.4% | viability, T/C [10] 78.5% | viability, T/C [11] 49.8% | viability, T/C [12] 33.2% | viability, T/C [13] 102% | viability, T/C [14] 97.5% | viability, T/C [15] 90.5% | viability, T/C [16] 81.6% | viability, T/C [17] 50.4% | viability, T/C [18] 33.5% | viability, T/C [19] 90.9% | viability, T/C [20] 92.8% | viability, T/C [21] 87.6% | viability, T/C [22] 73% | viability, T/C [23] 50.7% | viability, T/C [24] 34.3% | viability, T/C [25] 73.7% | viability, T/C [26] 76.4% | viability, T/C [27] 69.9% | viability, T/C [28] 52.6% | viability, T/C [29] 38.4% | viability, T/C [30] 30.3% | viability, T/C [31] 71.7% | viability, T/C [32] 71.5% | viability, T/C [33] 67% | viability, T/C [34] 54.7% | viability, T/C [35] 37.6% | viability, T/C [36] 27.2%

COc1ccc([C@@H](O)c2cc(-c3ncnc4cc(N5CCOCC5)ccc34)c(F)cc2Cl)nn1 + Cc1[nH]c2ccc(F)cc2c1-c1nc2c3cccnc3c3ncccc3c2[nH]1
3150 nM: IC50 (second compound 1 µM)
4910 nM: IC50 (second compound 0.0316 µM)
1410 nM: IC50 (second compound 10 µM)
2910 nM: IC50 (second compound 0.316 µM)
1880 nM: IC50 (second compound 3.16 µM)
3710 nM: IC50 (second compound 0.1 µM)
inactive: viability, T/C [1] 107% | viability, T/C [2] 91% | viability, T/C [3] 82.9% | viability, T/C [4] 72.5% | viability, T/C [5] 58% | viability, T/C [6] 38.5% | viability, T/C [7] 96.8% | viability, T/C [8] 99.8% | viability, T/C [9] 87.5% | viability, T/C [10] 66.5% | viability, T/C [11] 54.8% | viability, T/C [12] 39.7% | viability, T/C [13] 89.5% | viability, T/C [14] 96.8% | viability, T/C [15] 88.9% | viability, T/C [16] 69.2% | viability, T/C [17] 50.2% | viability, T/C [18] 35.1% | viability, T/C [19] 83.8% | viability, T/C [20] 90.5% | viability, T/C [21] 85.4% | viability, T/C [22] 69.9% | viability, T/C [23] 51.1% | viability, T/C [24] 33.9% | viability, T/C [25] 71.3% | viability, T/C [26] 68.3% | viability, T/C [27] 63.2% | viability, T/C [28] 56.8% | viability, T/C [29] 44.7% | viability, T/C [30] 29.7% | viability, T/C [31] 70.3% | viability, T/C [32] 69.3% | viability, T/C [33] 70.6% | viability, T/C [34] 51.3% | viability, T/C [35] 42.3% | viability, T/C [36] 31.6%
